# According to ChEMBL document CHEMBL4673316, “Synthesis and evaluation of a UMI-77-based fluorescent probe for selective detecting Mcl-1 protein and imaging in living cancer cells” (Bioorg Med Chem, 2021):
# Activity calls are given as the source filed them. No cut-off for these calls is given here.
# How the values were obtained:
# [1] = molecular target: T1, Induced myeloid leukemia cell differentiation protein Mcl-1 (Homo sapiens, UniProt Q07820); test: Binding affinity to Mcl1 in human PC-3 cells at 5 uM incubated for 30 mins by flow cytometry analysis; format: cell-based
# [2] = molecular target: T1, Induced myeloid leukemia cell differentiation protein Mcl-1; test: Binding affinity to Mcl1 (unknown origin) at 5 uM incubated for 20 mins in presence of 5 to 100 uM UMI-77 by fluorescence based assay
# [3] = molecular target: T1, Induced myeloid leukemia cell differentiation protein Mcl-1; test: Binding affinity to Mcl1 (unknown origin) at 5 uM incubated for 20 mins by fluorescence based assay relative to control
# [4] = molecular target: T1, Induced myeloid leukemia cell differentiation protein Mcl-1; test: Binding affinity to Mcl1 (unknown origin) at 5 uM incubated for 20 mins by fluorescence based assay (reference value: 0.66 %)
# [5] = species on record: Homo sapiens; test: Selectivity index, ratio of Ki for Bcl-2 (unknown origin) to Ki for Mcl-1 (unknown origin); settings: dose 5.0 µM, time 20.0 min
# [6] = molecular target: T1, Induced myeloid leukemia cell differentiation protein Mcl-1; test: Inhibition of Mcl-1 (unknown origin) using 5-FAM-Bid-BH3 as substrate incubated for 30 mins followed by substrate addition and measured after 20 mins by fluorescence polarization assay
# [7] = system: PC-3; test: Cytotoxicity against human PC-3 cells assessed as reduction in cell viability at 5 to 50 uM incubated for 1 hr by CCK8 assay; format: cell-based; settings: pc-3, 1 h, dose 5-50 µM
# [8] = molecular target: T1, Induced myeloid leukemia cell differentiation protein Mcl-1; test: Binding affinity to Mcl1 in HUVEC cells at 5 uM incubated for 30 mins by fluorescence microscopy analysis; format: cell-based
# [9] = species on record: Homo sapiens; test: Selectivity index, ratio of binding for BSA (unknown origin) to binding for Mcl-1 (unknown origin)
# [10] = molecular target: T1, Induced myeloid leukemia cell differentiation protein Mcl-1; test: Binding affinity to Mcl1 in human PC-3 cells at 5 uM incubated for 30 mins in presence of UMI-77 by fluorescence microscopy analysis; format: cell-based
# [11] = Drug localization in mitochondria of human PC-3 cells at 5 uM incubated for 30 mins by MitoTracker Red CMXRos dye and Hoechst 33342 nuclear dye based fluorescence microscopic analysis; format: ADME; settings: pc-3, 0.5 h
# [12] = molecular target: Apoptosis regulator Bcl-2 (Homo sapiens, UniProt P10415); test: Inhibition of Bcl2 (unknown origin) using 5-FAM-Bid-BH3 as substrate incubated for 30 mins followed by substrate addition and measured after 20 mins by fluorescence polarization assay
# [13] = molecular target: T1, Induced myeloid leukemia cell differentiation protein Mcl-1; test: Binding affinity to Mcl1 in human PC-3 cells at 5 uM incubated for 30 mins in presence of UMI-77 by flow cytometry analysis; format: cell-based
# [14] = molecular target: T1, Induced myeloid leukemia cell differentiation protein Mcl-1; test: Binding affinity to Mcl1 (unknown origin) at 5 uM incubated for 20 mins by fluorescence based assay
# [15] = Effect on human PC-3 cells with knocked out Mcl1 gene at 5 uM incubated for 30 mins by fluorescence microscopic analysis; format: ADME, cell-based; settings: pc-3, 0.5 h
# [16] = molecular target: T1, Induced myeloid leukemia cell differentiation protein Mcl-1; test: Binding affinity to Mcl1 in human PC-3 cells at 5 uM incubated for 30 mins by fluorescence microscopy analysis; format: cell-based
# [17] = system: HUVEC; test: Cytotoxicity against HUVEC cells assessed as reduction in cell viability at 5 to 50 uM incubated for 1 hr by CCK8 assay; format: cell-based; settings: human, dose 5-50 µM
# T1 sequence (Q07820 whole entry): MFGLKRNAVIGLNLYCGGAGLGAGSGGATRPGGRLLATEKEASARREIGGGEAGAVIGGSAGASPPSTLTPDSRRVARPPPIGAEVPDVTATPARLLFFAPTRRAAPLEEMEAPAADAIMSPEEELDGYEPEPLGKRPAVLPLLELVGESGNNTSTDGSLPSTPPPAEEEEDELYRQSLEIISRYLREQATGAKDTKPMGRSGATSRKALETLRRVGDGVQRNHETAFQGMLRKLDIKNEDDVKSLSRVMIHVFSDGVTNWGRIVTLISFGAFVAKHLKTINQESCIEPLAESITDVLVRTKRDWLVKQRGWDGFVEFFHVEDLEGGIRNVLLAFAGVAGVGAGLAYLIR
# Chain of Apoptosis regulator Bcl-2 (P10415 whole entry): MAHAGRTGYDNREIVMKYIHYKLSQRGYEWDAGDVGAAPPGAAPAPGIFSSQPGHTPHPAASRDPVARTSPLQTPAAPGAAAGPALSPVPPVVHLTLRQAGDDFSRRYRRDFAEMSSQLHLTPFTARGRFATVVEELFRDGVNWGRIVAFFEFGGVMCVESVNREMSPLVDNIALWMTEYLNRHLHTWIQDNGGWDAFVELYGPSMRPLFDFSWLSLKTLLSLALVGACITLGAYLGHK
Activity [1],Activity [2],fold change (FC) [3],Activity [4] [%],Ratio Ki [5],Ki [6] [µM],Activity [8],Ratio [9],Activity [10],Drug uptake [11],Ki [12] [µM],Activity [13],Activity [14],Activity [16],SMILES,Activity [7],Activity [15],Activity [17]
Active,inactive,5,6.47,5,0.12,inactive,2,inactive,Active,2.2,inactive,Active,Active,CN(C)c1cccc2c(S(=O)(=O)Nc3cc(SCC(=O)O)c(O)c4ccccc34)cccc12,Non-Toxic,Non-Toxic,Non-Toxic
–,–,–,–,–,0.21,–,–,–,–,11,–,–,–,O=C(O)CSc1cc(NS(=O)(=O)c2ccc(Br)cc2)c2ccccc2c1O,–,–,–
